Results published in patent US12391701B2, “Chromene-based compounds, methods and uses thereof” (University of Minho, priority 2019, dated 2025).
Values after ≈ are worked out from the molar mass of the structure shown.

Legend:
[1] = Highest soluble concentration in C. elegans assay; assay type: physicochemical; settings: C. elegans liquid culture medium (S-medium) with 1% DMSO, 20 °C, aqueous buffer, kinetic from dmso stock, read-out: highest soluble concentration possible
Method: The compounds were tested at several concentrations, up to the highest soluble concentration possible −150 μM (MC369, 75 μM) (FIG. 12). […] The rate of food consumption between days 3-5 was used as an indication for worm development, health and fertility and compared to 1% DMSO, (vehicle, not toxic).
In an embodiment, Bristol strain N2 (provided by the CGC, funded by the NIH Office of Research Infrastructure Programs—P40 OD010440) was used to test each compound's toxicity based on a food clearance assay using C. elegans. The assay was performed on 96-well plates in liquid culture (Voisine et al. 2007; Teixeira-Castro et al. 2015). Each well, with a final volume of 60 μL, comprised the following: approximately 20 worms in egg stage, OP50 bacteria to a final OD of 0.6-0.8 (595 nm) and each compound at the appropriate concentration. The worms were grown with continuous shaking at 180 rpm/20° C. (Shel lab Si series incubator) for 7 days and the absorbance (OD595) was measured daily on a microplate reader (Tecan Infinite M200). The effect of the compounds on C. elegans physiology was monitored by the rate at which the E. coli food suspension was consumed (FIG. 14). Age-synchronized worm eggs were obtained by “egg prep” as follows: adult worms were treated with an alkaline hypochlorite solution (20% bleach, 25% 1M NaOH) for 6 minutes, thereafter centrifuged and washed in M9 buffer twice. […]

[2] = test system: C57BI/6 mice; experiment: Toxicity in C57BI/6 mice, 2nd trial; assay type: in vivo; settings: 3 mg/Kg i.p. daily for 7 days
Method: In an embodiment, the effects of compound treatment on C57BI/6 mice—2nd trial was analysed. […] FIG. 16A is a schematic representation of the experiment timeline. 3-month old female and male animals were used (n=6/group/gender) and injected either with MC408 3 mg/Kg or vehicle (saline, Tween80 and methylcellulose) (i.p.) daily for 7 days. In this trial the number of animals per group was increased and the experiment was conceived to collect blood before and after the treatment. […] Data is presented as mean±SE.

[3] = test system: C57BI/6 mice; experiment: Toxicity in C57BI/6 mice, 1st trial; assay type: in vivo
Method: In an embodiment, the safety profiles of the compounds were evaluated in rodents. […] FIG. 13A is a schematic representation of the experiment timeline. 5-month old female and male animals were used (n=3/group/gender) and injected either with MC408 3 mg/Kg or vehicle (saline, Tween80 and methylcellulose) (i.p.) daily for 7 days. A battery of welfare tests was performed daily. […] The activity was measured in a viewing jar and the number of vertical movements were counted for 5 minutes. […] The activity was recorded in an open arena labelled with squares and the number of squares were counted while the animals were freely exploring for 1 minute. […] In FIGS. 13G and H, water and food intake were analysed respectively. Each day, […] of food and 200 mL of water were placed in each cage. […] Data is presented as mean±SE.
In an embodiment, C57/BI6 female and male mice (n=3/group/gender) were intraperitoneally injected with MC408 (3 mg/Kg) or vehicle (saline, Tween80 and methylcellulose) daily, for 7 days to determine toxicity of the compounds in mice model. A battery of tests to assess mice welfare were performed daily. Immediately after the first drug administration, animals were videotaped and the immediate effects of MC408 were recorded. The number of vertical movements and the immobility time were recorded. Water and food intake were evaluated during the 7 days of the experiment, by adding a fixed amount of food and water in the animal's home cage in the 1st day and measuring the remaining amount at day 7. Body weight was assessed every day in a dynamic mouse scale. Horizontal and vertical activity was analysed to evaluate animals' intrinsic exploratory behavior; these were measured in an open arena with labelled squares for 1 minute and in a viewing jar for 5 minutes, respectively. Furthermore, the number of bolus faecalis were also counted while animals were performing the daily behavior assessment protocols, as a measure of anxiety. A battery of tests more related to animal welfare was applied by the experimenter, including measurements of: (i) body position and curvature; (ii) spontaneous activity; (iii) respiratory rate; (iv) eyelid opening and reflexes; (v) skin picking to analyse dehydration; (vi) grooming; (vii) fur erection; (viii) tremors; (ix) limb clasping and (x) reaction to transfer. At day 7, the animals were euthanized. All animals were deeply anesthetized (ketamine hydrochloride (150 mg/kg) and medetomidine (0.3 mg/kg)) and transcardially perfused with a saline solution (NaCl 0.9% (wt/v)). Blood was collected from the cava vein, centrifuged for 10 minutes at 13.000 rpm and the plasma was transferred to a new tube and stored at −80° C. until further processing for enzymatic liver function measurements using standard techniques. The organs (kidney, intestine, stomach, brain, liver, ovary/testis) were harvested and placed in tubes containing 4% paraformaldehyde and further processed for paraffin embedding and pathology analysis.

Row | SMILES | solubility [1] | body weight [2] | exploratory activities (vertical and horizontal) ([3]; 3 mg/Kg i.p. daily for 7 days) | number of bolus faecalis (indirect measure of anxiety) ([3]; 3 mg/Kg i.p. daily for 7 days) | body weight ([3]; 3 mg/Kg i.p. daily for 7 days, 1st trial) | water and food intake ([3]; 3 mg/Kg i.p. daily, measured at day 7) | battery of welfare tests ([3]; 3 mg/Kg i.p. daily, vs vehicle) | immobility time and vertical movement (REARS) immediately after first injection ([3]; 3 mg/Kg i.p., 10 min, vs vehicle) | serum AST and ALT (enzymatic liver function) ([3]; day 7, females and males, vs vehicle)
1 | COc1cccc2c1Oc1nc(-c3ccccc3F)[nH]c1C2C1c2cccc(OC)c2Oc2nc(-c3ccccc3F)[nH]c21 (stereo not drawn) [MC369, 2,2′-bis(2-fluorophenyl)-5,5′-dimethoxy-1,1,9,9′-tetrahydro-9,9′-bichromeno[2,3-]imidazoles] | 75 µM (≈ 44.3 µg/mL) | – | – | – | – | – | – | – | –
2 | COc1cccc2c1Oc1nc(-c3ccc(Br)cc3)[nH]c1C2 [MC408, 2-(4-bromophenyl)-5-methoxy-3,9-dihydrochromeno[2,3-d]imidazoles] | – | no differences were found | No differences were found | no differences were observed | no differences were found | no differences were found | no impact | No differences were found | No statistical differences
